Assay: Solubility of drug substance in water / suspension
Assay type: physicochemical

water solubility of drug substance: relatively water insoluble
SMILES: Cc1ccc(Nc2c(F)cccc2Cl)c(CC(=O)O)c1 [5-methyl-2-(2′-chloro-6′-fluoroanilino)phenylacetic acid]
